Data: ChEMBL document CHEMBL3994622, “Design and synthesis of new RAF kinase-inhibiting antiproliferative quinoline derivatives. Part 2: Diarylurea derivatives” (Eur J Med Chem, 2017)

Experiments:
[1] = biological target: RAF proto-oncogene serine/threonine-protein kinase (Homo sapiens, UniProt P04049); assay: Inhibition of human c-RAF at 10 uM using MEK1 as substrate in presence of [33P]ATP by Hotspot assay relative to control
NCI/ADR-RES = assay: Growth inhibition of human NCI/ADR-RES cells incubated for 48 hrs by sulforhodamine B assay; assay type: functional
Malme-3M = assay: Growth inhibition of human MALME-3M cells incubated for 48 hrs by sulforhodamine B assay; assay type: functional
U-251 = assay: Growth inhibition of human U251 cells incubated for 48 hrs by sulforhodamine B assay; assay type: functional; details: U-251, 48 h
SF-268 = assay: Growth inhibition of human SF268 cells incubated for 48 hrs by sulforhodamine B assay; assay type: functional; details: SF-268, 48 h
SF-295 = assay: Growth inhibition of human SF295 cells incubated for 48 hrs by sulforhodamine B assay; assay type: functional; details: SF-295, 48 h
SN12C = assay: Growth inhibition of human SN12C cells incubated for 48 hrs by sulforhodamine B assay; assay type: functional
MCF7 = assay: Growth inhibition of human MCF7 cells incubated for 48 hrs by sulforhodamine B assay; assay type: functional; details: MCF7, 48 h
ACHN = assay: Growth inhibition of human ACHN cells incubated for 48 hrs by sulforhodamine B assay; assay type: functional
SK-OV-3 = assay: Growth inhibition of human SKOV3 cells incubated for 48 hrs by sulforhodamine B assay; assay type: functional; details: SK-OV-3, 48 h
SR = assay: Growth inhibition of human SR cells incubated for 48 hrs by sulforhodamine B assay; assay type: functional
RXF 393 = assay: Growth inhibition of human RXF393 cells incubated for 48 hrs by sulforhodamine B assay; assay type: functional; details: RXF 393, 48 h
MOLT-4 = assay: Growth inhibition of human MOLT4 cells incubated for 48 hrs by sulforhodamine B assay; assay type: functional; details: MOLT-4, 48 h
NCI-H460 = assay: Growth inhibition of human NCI-H460 cells incubated for 48 hrs by sulforhodamine B assay; assay type: functional; details: NCI-H460, 48 h
COLO 205 = assay: Growth inhibition of human COLO205 cells incubated for 48 hrs by sulforhodamine B assay; assay type: functional; details: COLO 205, 48 h
SNB-19 = assay: Growth inhibition of human SNB19 cells incubated for 48 hrs by sulforhodamine B assay; assay type: functional; details: SNB-19, 48 h
UACC-62 = assay: Growth inhibition of human UACC62 cells incubated for 48 hrs by sulforhodamine B assay; assay type: functional; details: UACC-62, 48 h
BT-549 = assay: Growth inhibition of human BT549 cells incubated for 48 hrs by sulforhodamine B assay; assay type: functional; details: BT-549, 48 h
OVCAR-8 = assay: Growth inhibition of human OVCAR8 cells incubated for 48 hrs by sulforhodamine B assay; assay type: functional; details: OVCAR-8, 48 h
IGROV-1 = assay: Growth inhibition of human IGROV1 cells incubated for 48 hrs by sulforhodamine B assay; assay type: functional; details: IGROV-1, 48 h
RPMI-8226 = assay: Growth inhibition of human RPMI8226 cells incubated for 48 hrs by sulforhodamine B assay; assay type: functional; details: RPMI-8226, 48 h
OVCAR-5 = assay: Growth inhibition of human OVCAR5 cells incubated for 48 hrs by sulforhodamine B assay; assay type: functional; details: OVCAR-5, 48 h
TK-10 = assay: Growth inhibition of human TK10 cells incubated for 48 hrs by sulforhodamine B assay; assay type: functional; details: TK-10, 48 h
K562 = assay: Growth inhibition of human K562 cells incubated for 48 hrs by sulforhodamine B assay; assay type: functional; details: K562, 48 h
SF-539 = assay: Growth inhibition of human SF539 cells incubated for 48 hrs by sulforhodamine B assay; assay type: functional; details: SF-539, 48 h
CAKI-1 = assay: Growth inhibition of human Caki1 cells incubated for 48 hrs by sulforhodamine B assay; assay type: functional; details: CAKI-1, 48 h
KM12 = assay: Growth inhibition of human KM12 cells incubated for 48 hrs by sulforhodamine B assay; assay type: functional; details: KM12, 48 h
EKVX = assay: Growth inhibition of human EKVX cells incubated for 48 hrs by sulforhodamine B assay; assay type: functional
SNB-75 = assay: Growth inhibition of human SNB75 cells incubated for 48 hrs by sulforhodamine B assay; assay type: functional; details: SNB-75, 48 h
MDA-MB-231 = assay: Growth inhibition of human MDA-MB-231 cells incubated for 48 hrs by sulforhodamine B assay; assay type: functional; details: MDA-MB-231, 48 h
HOP-92 = assay: Growth inhibition of human HOP92 cells incubated for 48 hrs by sulforhodamine B assay; assay type: functional; details: HOP-92, 48 h
MDA-MB-435 = assay: Growth inhibition of human MDA-MB-435 cells incubated for 48 hrs by sulforhodamine B assay; assay type: functional; details: MDA-MB-435, 48 h
[2] = read-out: LC50 (the source's name)

Chain of RAF proto-oncogene serine/threonine-protein kinase (P04049 whole entry): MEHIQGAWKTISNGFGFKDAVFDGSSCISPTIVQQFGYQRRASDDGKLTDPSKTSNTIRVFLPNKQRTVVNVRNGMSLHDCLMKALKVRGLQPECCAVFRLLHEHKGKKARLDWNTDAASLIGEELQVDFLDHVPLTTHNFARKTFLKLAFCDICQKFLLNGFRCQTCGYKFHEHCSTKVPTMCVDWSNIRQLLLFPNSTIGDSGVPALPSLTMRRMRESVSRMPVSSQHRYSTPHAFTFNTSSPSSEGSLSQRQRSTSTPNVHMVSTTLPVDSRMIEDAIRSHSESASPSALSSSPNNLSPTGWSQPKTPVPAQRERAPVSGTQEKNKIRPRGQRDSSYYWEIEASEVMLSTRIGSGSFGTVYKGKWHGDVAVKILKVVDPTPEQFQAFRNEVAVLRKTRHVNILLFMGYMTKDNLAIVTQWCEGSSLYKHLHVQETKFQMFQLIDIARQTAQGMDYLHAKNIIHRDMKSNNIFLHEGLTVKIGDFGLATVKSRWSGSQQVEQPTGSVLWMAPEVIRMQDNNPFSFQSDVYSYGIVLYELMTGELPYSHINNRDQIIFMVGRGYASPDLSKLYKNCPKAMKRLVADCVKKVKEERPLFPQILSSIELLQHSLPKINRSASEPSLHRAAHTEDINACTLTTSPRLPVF

With `COc1cc2cc(Oc3ccc(NC(=O)Nc4cc(C(F)(F)F)cc(C(F)(F)F)c4)cc3)c(C)nc2cc1OC` the inhibition [1] was 92.4%, the GI50 (NCI/ADR-RES) was 1.27 µM and the TGI (NCI/ADR-RES) was 3.44 µM. It also gave a CC50 (NCI/ADR-RES; [2]) of 7.04 µM, a GI50 (Malme-3M) of 1.1 µM and a TGI (Malme-3M) of 3.46 µM. The CC50 (Malme-3M; [2]) was 13.6 µM, the GI50 (U-251) was 1.08 µM and the TGI (U-251) was 2.47 µM. The CC50 (U-251; [2]) was 5.61 µM, the GI50 (SF-268) was 1.62 µM and the LC50 (50% lethal concentration) (SF-268) was 8.37 µM. For the same compound, the TGI (SF-268) was 3.68 µM, the GI50 (SF-295) was 0.48 to 0.481 µM and the TGI (SF-295) was 1.94 µM. The CC50 (SF-295; [2]) was 5.71 µM, the GI50 (SN12C) was 0.59 µM and the TGI (SN12C) was 2.09 µM. For the same compound, the CC50 (SN12C; [2]) was 32.5 µM, the GI50 (MCF7) was 0.54 µM and the TGI (MCF7) was 2.36 µM. For the same compound, the CC50 (MCF7; [2]) was 5.75 µM, the GI50 (ACHN) was 0.39 µM and the TGI (ACHN) was 1.69 µM. For the same compound, the CC50 (ACHN; [2]) was 51.6 µM, the GI50 (SK-OV-3) was 1.71 µM and the TGI (SK-OV-3) was 3.47 µM. For the same compound, the CC50 (SK-OV-3; [2]) was 5.91 µM, the GI50 (SR) was 1.62 µM and the TGI (SR) was 5.97 µM. The CC50 (SR; [2]) was > 100 µM, the GI50 (RXF 393) was 2.06 µM and the TGI (RXF 393) was 4.78 µM. For the same compound, the CC50 (RXF 393; [2]) was 5.94 µM, the GI50 (MOLT-4) was 1.13 µM and the LC50 (MOLT-4) was > 100 µM. For the same compound, the TGI (MOLT-4) was 4.04 µM, the GI50 (NCI-H460) was 0.96 µM and the TGI (NCI-H460) was 2.72 µM. For the same compound, the CC50 (NCI-H460; [2]) was 7.53 µM, the GI50 (COLO 205) was 1.79 µM and the TGI (COLO 205) was 3.58 µM. It also gave a CC50 (COLO 205; [2]) of 7.18 µM, a GI50 (SNB-19) of 0.65 to 0.654 µM and a TGI (SNB-19) of 2.16 µM. It also gave a CC50 (SNB-19; [2]) of 5.73 µM, a GI50 (UACC-62) of 0.56 µM and a TGI (UACC-62) of 2.09 µM. It also gave a CC50 (UACC-62; [2]) of 6.03 µM, a GI50 (BT-549) of 1.75 µM and a TGI (BT-549) of 3.76 µM. For the same compound, the CC50 (BT-549; [2]) was 30.1 µM, the GI50 (OVCAR-8) was 1.63 µM and the TGI (OVCAR-8) was 4.22 µM. For the same compound, the CC50 (OVCAR-8; [2]) was > 100 µM, the GI50 (IGROV-1) was 0.51 µM and the TGI (IGROV-1) was 2.3 µM. For the same compound, the CC50 (IGROV-1; [2]) was 8.68 µM, the GI50 (RPMI-8226) was 0.41 to 0.46 µM and the LC50 (lethal concentration, 50% cell kill) (RPMI-8226) was > 100 µM. It also gave a TGI (RPMI-8226) of 5.51 µM, a GI50 (OVCAR-5) of 1.93 µM and a TGI (OVCAR-5) of 4.14 µM. For the same compound, the CC50 (OVCAR-5; [2]) was 8.88 µM, the GI50 (TK-10) was 2.32 µM and the TGI (TK-10) was 9.18 µM. The CC50 (TK-10; [2]) was 5.99 µM, the GI50 (K562) was 0.57 µM and the LC50 (concentration killing 50% of cells) (K562) was 17 µM. For the same compound, the TGI (K562) was 2.53 µM, the GI50 (SF-539) was 1.45 µM and the TGI (SF-539) was 3.21 µM. For the same compound, the CC50 (SF-539; [2]) was 7.11 µM, the GI50 (CAKI-1) was 1.41 µM and the TGI (CAKI-1) was 5.1 µM. It also gave a CC50 (CAKI-1; [2]) of 15.3 µM, a GI50 (KM12) of 0.918 to 0.92 µM and a TGI (KM12) of 2.46 µM. The CC50 (KM12; [2]) was 6.27 µM, the GI50 (EKVX) was 1 µM and the LC50 (concentration killing 50% of cells) (EKVX) was 8.88 µM. It also gave a TGI (EKVX) of 2.98 µM, a GI50 (SNB-75) of 1.73 µM and a TGI (SNB-75) of 5.05 µM. The CC50 (SNB-75; [2]) was > 100 µM, the GI50 (MDA-MB-231) was 1.08 µM and the TGI (MDA-MB-231) was 2.49 µM. The CC50 (MDA-MB-231; [2]) was > 100 µM, the GI50 (HOP-92) was 1.12 µM and the LC50 (HOP-92) was 40.9 µM. For the same compound, the TGI (HOP-92) was 3.9 µM, the GI50 (MDA-MB-435) was 1.8 µM and the TGI (MDA-MB-435) was 4.28 µM. For the same compound, the CC50 (MDA-MB-435; [2]) was 11.6 µM.
